These results are taken from ChEMBL document CHEMBL1201862, “PubChem BioAssay data set” (2004).

What all share (experiment): NCI-60 cell line screen, 48 h
The test system of assay [1] is ACHN.
Assay [2] has as its system COLO 205.
The test system of assay [3] is EKVX.
Assay [4] has as its system HCC 2998.
In assay [5] the test system is HCT-15.
Assay [6] has as its system HL-60.
Assay [7] deals with HT-29.
In assay [8] the test system is M14.
Assay [9] concerns MCF7.
The test system of assay [10] is MDA-MB-231.
Assay [11] relates to MDA-N.
The test system of assay [12] is NCI-H460.
Assay [13] has as its system NCI-H522.
Assay [14] deals with OVCAR-4.
Assay [15] relates to PC-3.
In assay [16] the test system is SF-268.
The test system of assay [17] is SNB-75.
The subject of assay [18] is SR.
In assay [19] the test system is TK-10.
In assay [20] the test system is UACC-257.

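Growth conditions: 96-well plates. Treatment: test compound, 48 hours, 5 concentrations. Analysis: linear interpolation between bracketing concentrations; unreached endpoints set to highest concentration. GI50 = concentration required for 50% inhibition of growth.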 Activity calls are given as the source filed them. Rule as the data show it: active = GI50 up to about 1.1 µM and inactive = higher.

Consider `CC1=CC=C2c3ccccc3C=CN2C(=O)C1`, for which the GI50 in assay [1] was 62.5 µM (inactive); in assay [2] it was 42.5 µM (inactive); in [3], 23 µM (inactive); in assay [4], 56.6 µM (inactive); in assay [5], 45.9 µM; in [6] it was 16.9 µM (inactive). For the same molecule, the GI50 in [7] is 51.4 µM (inactive); in assay [8], 62.1 µM (inactive); in assay [9] it was 45.3 µM (inactive); in assay [10] it was 40.5 µM (inactive); in [11], 37.2 µM (inactive); in assay [12], 53.2 µM (inactive). Also, the GI50 in [13] is 43.3 µM (inactive); in assay [14] it was > 100 µM (inactive); in [15], 50 µM (inactive); in [16], 60.3 µM (inactive); in assay [17], 38.4 µM (inactive); in [18], 40.7 µM (inactive). In addition, the GI50 is 20.1 µM (inactive) in [19] and 96.6 µM (inactive) in [20].

Regarding `C[n+]1c2ccccc2n2c3ccccc3c(NCCCN3CCOCC3)c(C#N)c21`, the GI50 in assay [1] was 2.61 µM (inactive); in [2], 0.891 µM (active); in assay [3], 2.9 µM (inactive); in [4] it was 1.27 µM (inactive); in [5], 4.65 µM; in [6] it was 8.13 µM (inactive). Besides, the GI50 is 2.37 µM (inactive) in assay [7]; 2.4 µM (inactive) in [8]; 0.564 µM (active) in assay [9]; 0.804 µM (active) in [10]; 1.04 µM (active) in [11]; 0.684 µM (active) in assay [12]. The GI50 is 0.652 µM (active) in assay [13]; 1.56 µM (inactive) in [14]; 1.31 µM (inactive) in assay [15]; 1.11 µM (active) in assay [16]; 2.23 µM (inactive) in assay [17]; 2.81 µM (inactive) in assay [18]. The GI50 is 1.58 µM (inactive) in [19] and 2.99 µM (inactive) in assay [20].

On to `CN1C(=O)[C@H](c2c[nH]c3ccccc23)[C@H](c2c[nH]c3ccccc23)C1=O`, for which the GI50 was 23.8 µM (inactive) in [1]; 1.33 µM (inactive) in assay [2]; 29.4 µM (inactive) in assay [3]; > 52.5 µM (inactive) in assay [4]; 24.8 µM in assay [5]; 5.13 µM (inactive) in assay [6]. Moreover, the GI50 is 34.7 µM (inactive) in assay [7]; 38.8 µM (inactive) in assay [8]; 29.9 µM (inactive) in [9]; 4.4 µM (inactive) in assay [10]; 38.1 µM (inactive) in [11]; 23.9 µM (inactive) in assay [12]. In addition, the GI50 in [13] is 34.2 µM (inactive); in assay [14], 5.32 µM (inactive); in assay [15], 24.3 µM (inactive); in assay [16], 33.3 µM (inactive); in assay [17] it was 34.7 µM (inactive); in assay [18] it was 22.6 µM (inactive). The results for the GI50 in assay [19] and in [20] were 22 µM (inactive) and 29.5 µM (inactive), respectively.

As to `O=[N+]([O-])c1cc2oc(CSc3ccccc3)nc2cc1Cl`, the GI50 in assay [1] was 59.7 µM (inactive); in [2], 21.7 µM (inactive); in assay [3], 30.7 µM (inactive); in [4], 23.5 µM (inactive); in assay [5], 19.2 µM; in [6] it was 30.3 µM (inactive). Also, the GI50 in assay [7] was 28.1 µM (inactive); in assay [8], 32.9 µM (inactive); in assay [9], 42.8 µM (inactive); in assay [10], 32.2 µM (inactive); in assay [11], 35 µM (inactive); in [12] it was 26.7 µM (inactive). Also, the GI50 in assay [13] is 29.3 µM (inactive); in [14] it was 34.4 µM (inactive); in assay [15], 48 µM (inactive); in assay [16] it was 58.7 µM (inactive); in assay [17], 26.1 µM (inactive); in assay [18], 33.3 µM (inactive). For the same molecule, the GI50 in assay [19] is 35.8 µM (inactive); in assay [20] it was 28.6 µM (inactive).
